According to ChEMBL document CHEMBL1275483, “Staphylococcus aureus cell wall stress stimulon gene-lacZ fusion strains: potential for use in screening for cell wall-active antimicrobials” (2008):
In brackets after ≈: the same amount, converted by molar mass. Activity calls are given as the source filed them. The calls are words filed in the database; no cut-off is given here. Where a SMILES comes first, the peptide text is derived from it. Bridges are numbered along the chain shown (N, C = ends). [ ]: non-standard residue; d: D form. The star is where a group is joined. Ileψ(thiazoline)Cys = CC[C@H](C)[C@H](N)C1=N[C@H](C(=O)*)CS1; dOrn = NCCC[C@@H](N)C(=O)O

What was measured:
Staphylococcus aureus [1] = test: Induction of PlytR::lacZ gene expression in Staphylococcus aureus SH1000 at 150 ug/ml after 2 hrs by beta-galactosidase reporter gene assay relative to untreated control; type: functional
Staphylococcus aureus [2] = test: Induction of PsgtB::lacZ gene expression in Staphylococcus aureus SH1000 at 150 ug/ml after 2 hrs by beta-galactosidase reporter gene assay relative to untreated control; type: functional
Staphylococcus aureus [3] = test: Induction of PtcaA::lacZ gene expression in Staphylococcus aureus SH1000 at 150 ug/ml after 2 hrs by beta-galactosidase reporter gene assay relative to untreated control; type: functional
Staphylococcus aureus [4] = test: Induction of Ppbp2::lacZ gene expression in Staphylococcus aureus SH1000 at 150 ug/ml after 2 hrs by beta-galactosidase reporter gene assay relative to untreated control; type: functional
Staphylococcus aureus [5] = test: Induction of PvraSr::lacZ gene expression in Staphylococcus aureus SH1000 at 150 ug/ml after 2 hrs by beta-galactosidase reporter gene assay relative to untreated control; type: functional
Staphylococcus aureus [6] = test: Antimicrobial activity against beta-lactamase producing Staphylococcus aureus SH1000; type: functional
Staphylococcus aureus [7] = test: Induction of PlytR::lacZ gene expression in Staphylococcus aureus SH1000 at 8 ug/ml after 2 hrs by beta-galactosidase reporter gene assay relative to untreated control; type: functional, organism-based
Staphylococcus aureus [8] = test: Induction of PvraSr::lacZ gene expression in Staphylococcus aureus SH1000 at 8 ug/ml after 2 hrs by beta-galactosidase reporter gene assay relative to untreated control; type: functional, organism-based
Staphylococcus aureus [9] = test: Induction of Ppbp2::lacZ gene expression in Staphylococcus aureus SH1000 at 8 ug/ml after 2 hrs by beta-galactosidase reporter gene assay relative to untreated control; type: functional, organism-based
Staphylococcus aureus [10] = test: Induction of PsgtB::lacZ gene expression in Staphylococcus aureus SH1000 at 8 ug/ml after 2 hrs by beta-galactosidase reporter gene assay relative to untreated control; type: functional, organism-based
Staphylococcus aureus [11] = test: Induction of PtcaA::lacZ gene expression in Staphylococcus aureus SH1000 at 8 ug/ml after 2 hrs by beta-galactosidase reporter gene assay relative to untreated control; type: functional, organism-based
Staphylococcus aureus [12] = test: Induction of Ppbp2::lacZ gene expression in Staphylococcus aureus SH1000 at 0.3 ug/ml after 0.5 hrs by beta-galactosidase reporter gene assay relative to untreated control; type: functional, organism-based
Staphylococcus aureus [13] = test: Induction of PtcaA::lacZ gene expression in Staphylococcus aureus SH1000 at 2.5 ug/ml after 2 hrs by beta-galactosidase reporter gene assay relative to untreated control; type: functional
Staphylococcus aureus [14] = test: Induction of PvraSr::lacZ gene expression in Staphylococcus aureus SH1000 at 2.5 ug/ml after 2 hrs by beta-galactosidase reporter gene assay relative to untreated control; type: functional
Staphylococcus aureus [15] = test: Induction of PlytR::lacZ gene expression in Staphylococcus aureus SH1000 at 2.5 ug/ml after 2 hrs by beta-galactosidase reporter gene assay relative to untreated control; type: functional
Staphylococcus aureus [16] = test: Induction of PsgtB::lacZ gene expression in Staphylococcus aureus SH1000 at 2.5 ug/ml after 2 hrs by beta-galactosidase reporter gene assay relative to untreated control; type: functional
Staphylococcus aureus [17] = test: Induction of Ppbp2::lacZ gene expression in Staphylococcus aureus SH1000 at 2.5 ug/ml after 2 hrs by beta-galactosidase reporter gene assay relative to untreated control; type: functional
Staphylococcus aureus [18] = test: Induction of PlytR::lacZ gene expression in Staphylococcus aureus SH1000 at 13.4 ug/ml after 2 hrs by beta-galactosidase reporter gene assay relative to untreated control; type: functional
Staphylococcus aureus [19] = test: Induction of PvraSr::lacZ gene expression in Staphylococcus aureus SH1000 at 13.4 ug/ml after 2 hrs by beta-galactosidase reporter gene assay relative to untreated control; type: functional
Staphylococcus aureus [20] = test: Induction of PsgtB::lacZ gene expression in Staphylococcus aureus SH1000 at 13.4 ug/ml after 2 hrs by beta-galactosidase reporter gene assay relative to untreated control; type: functional
Staphylococcus aureus [21] = test: Induction of PtcaA::lacZ gene expression in Staphylococcus aureus SH1000 at 13.4 ug/ml after 2 hrs by beta-galactosidase reporter gene assay relative to untreated control; type: functional
Staphylococcus aureus [22] = test: Induction of Ppbp2::lacZ gene expression in Staphylococcus aureus SH1000 at 13.4 ug/ml after 2 hrs by beta-galactosidase reporter gene assay relative to untreated control; type: functional
Staphylococcus aureus [23] = test: Induction of Ppbp2::lacZ gene expression in Staphylococcus aureus SH1000 at 3 ug/ml after 2 hrs by beta-galactosidase reporter gene assay relative to untreated control; type: functional
Staphylococcus aureus [24] = test: Induction of PsgtB::lacZ gene expression in Staphylococcus aureus SH1000 at 3 ug/ml after 2 hrs by beta-galactosidase reporter gene assay relative to untreated control; type: functional
Staphylococcus aureus [25] = test: Induction of PlytR::lacZ gene expression in Staphylococcus aureus SH1000 at 3 ug/ml after 2 hrs by beta-galactosidase reporter gene assay relative to untreated control; type: functional
Staphylococcus aureus [26] = test: Induction of PtcaA::lacZ gene expression in Staphylococcus aureus SH1000 at 3 ug/ml after 2 hrs by beta-galactosidase reporter gene assay relative to untreated control; type: functional
Staphylococcus aureus [27] = test: Induction of PvraSr::lacZ gene expression in Staphylococcus aureus SH1000 at 3 ug/ml after 2 hrs by beta-galactosidase reporter gene assay relative to untreated control; type: functional

N[C@@H]1CONC1=O [CYCLOSERINE]
fold change (FC) (Staphylococcus aureus [1]): 3.13 | fold change (FC) (Staphylococcus aureus [2]): 15.63 | fold change (FC) (Staphylococcus aureus [3]): 4.6 | fold change (FC) (Staphylococcus aureus [4]): 3.41 | fold change (FC) (Staphylococcus aureus [5]): 4.08 | MIC (Staphylococcus aureus [6]): 1 µg/mL (≈ 9.79 µM)

Cc1onc(-c2ccccc2)c1C(=O)N[C@@H]1C(=O)N2[C@@H]1SC(C)(C)[C@@H]2C(=O)O [OXACILLIN]
Activity (Staphylococcus aureus [7]): Active | Activity (Staphylococcus aureus [8]): Active | Activity (Staphylococcus aureus [9]): Active | Activity (Staphylococcus aureus [10]): Active | Activity (Staphylococcus aureus [11]): Active | Activity (Staphylococcus aureus [12]): Active | MIC (Staphylococcus aureus [6]): 1 µg/mL (≈ 2.49 µM)

CC[C@H]1OC(=O)[C@H](C)[C@@H](O[C@H]2C[C@@](C)(OC)[C@@H](O)[C@H](C)O2)[C@H](C)[C@@H](O[C@@H]2O[C@H](C)C[C@H](N(C)C)[C@H]2O)[C@](C)(O)C[C@@H](C)C(=O)[C@H](C)[C@@H](O)[C@]1(C)O [ERYTHROMYCIN]
fold change (FC) (Staphylococcus aureus [13]): 1.12 | fold change (FC) (Staphylococcus aureus [14]): 0.8 | fold change (FC) (Staphylococcus aureus [15]): 1.04 | fold change (FC) (Staphylococcus aureus [16]): 0.93 | fold change (FC) (Staphylococcus aureus [17]): 1.15 | MIC (Staphylococcus aureus [6]): 2 µg/mL (≈ 2.73 µM)

CC[C@H](C)[C@H](N)C1=N[C@H](C(=O)N[C@@H](CC(C)C)C(=O)N[C@H](CCC(=O)O)C(=O)N[C@H](C(=O)N[C@H]2CCCCNC(=O)[C@H](CC(N)=O)NC(=O)[C@@H](CC(=O)O)NC(=O)[C@H](Cc3cnc[nH]3)NC(=O)[C@@H](Cc3ccccc3)NC(=O)[C@H]([C@@H](C)CC)NC(=O)[C@@H](CCCN)NC2=O)[C@@H](C)CC)CS1 [BACITRACIN] ({Ileψ(thiazoline)Cys}-L[dE]IK[dOrn]I[dF]H[dD]N; lactam 4-C)
fold change (FC) (Staphylococcus aureus [18]): 1.94 | fold change (FC) (Staphylococcus aureus [19]): 1.92 | fold change (FC) (Staphylococcus aureus [20]): 4.63 | fold change (FC) (Staphylococcus aureus [21]): 3.99 | fold change (FC) (Staphylococcus aureus [22]): 3.7 | MIC (Staphylococcus aureus [6]): 2 µg/mL (≈ 1.41 µM)

CN[C@@H]1[C@H](O[C@H]2[C@H](O[C@H]3[C@H](O)[C@@H](O)[C@H](N=C(N)N)[C@@H](O)[C@@H]3N=C(N)N)O[C@@H](C)[C@]2(O)C=O)O[C@@H](CO)[C@H](O)[C@H]1O [STREPTOMYCIN]
fold change (FC) (Staphylococcus aureus [23]): 0.3 | fold change (FC) (Staphylococcus aureus [24]): 0.41 | fold change (FC) (Staphylococcus aureus [25]): 0.7 | fold change (FC) (Staphylococcus aureus [26]): 0.79 | fold change (FC) (Staphylococcus aureus [27]): 0.96 | MIC (Staphylococcus aureus [6]): 1.5 µg/mL (≈ 2.58 µM)
